The values that follow come from patent publication US7317037B2, “Progesterone receptor modulators comprising pyrrole-oxindole derivatives and uses thereof” (Wyeth, priority 2004, dated 2008).

The test system of one data set is menses induction. The data set can be described thus: Cynomolgus monkey menses induction assay. The note with it: 5 mg/kg po. Type of data set: in vivo. The procedure: C. Cynomolgus Monkey […] Induction 1. Experimental Design The effects of administered compound(s) in either a single dose or a dose-response paradigm versus an appropriate control (vehicle alone) are determined. When a compound is tested at a single dose, a group of four animals will be used for the dose. In the dose response study, each experiment will involve up to 5 groups of animals (a control group and 4 groups of animals treated with varying doses of the compound). Experimental groups will contain 3-4 animals/group, since this sample size is commonly used in the literature and has been found appropriate based on our own experience. The animals are treated with test compounds once or twice daily for 4 days in the mid-luteal phase of the menstrual cycle to assess the efficacy of the compounds on the reproductive parameters menstruation. 2. Procedures Initially, animals are characterized in terms of their reproductive cyclicity by observing time of menstruation. Only those animals with two consecutive normal cycles are used to evaluate test compounds. […] will be determined by daily gross examination for vaginal bleeding. In each experiment, animals will be treated once or twice daily IV, IM, SC or PO with the test compound. Appropriate vehicles will be determined for each route of administration and will be specified through protocol amendments. […]

Data set [1] in a line: Cynomolgus monkey intravenous pharmacokinetics. As to conditions: in vivo, cynomolgus monkeys, 0.25 mg/kg i.v. The source says:
Therefore from the preceding data it is clear that the R6=fluorine group present in 5-(7-fluoro-3,3-dimethyl-2-oxo-2,3-dihydro-1H-indol-5-yl)-1-methyl-1H-pyrrole-2-carbonitrile dramatically improves the pharmacokinetic performance of the molecule. This improved pharmacokinetic performance translates in the cynomolgus menses induction assay to a dramatic improvement in activity.

Data set [2] addresses T1, progesterone receptor (PR) (Homo sapiens, UniProt P06401).
T1 construct: Effects of Progestins and Antiprogestins on Alkaline Phosphatase Activity in T47D Cells; endogenous in cells; host or cells: T47D cells
T1 sequence (P06401 1-933): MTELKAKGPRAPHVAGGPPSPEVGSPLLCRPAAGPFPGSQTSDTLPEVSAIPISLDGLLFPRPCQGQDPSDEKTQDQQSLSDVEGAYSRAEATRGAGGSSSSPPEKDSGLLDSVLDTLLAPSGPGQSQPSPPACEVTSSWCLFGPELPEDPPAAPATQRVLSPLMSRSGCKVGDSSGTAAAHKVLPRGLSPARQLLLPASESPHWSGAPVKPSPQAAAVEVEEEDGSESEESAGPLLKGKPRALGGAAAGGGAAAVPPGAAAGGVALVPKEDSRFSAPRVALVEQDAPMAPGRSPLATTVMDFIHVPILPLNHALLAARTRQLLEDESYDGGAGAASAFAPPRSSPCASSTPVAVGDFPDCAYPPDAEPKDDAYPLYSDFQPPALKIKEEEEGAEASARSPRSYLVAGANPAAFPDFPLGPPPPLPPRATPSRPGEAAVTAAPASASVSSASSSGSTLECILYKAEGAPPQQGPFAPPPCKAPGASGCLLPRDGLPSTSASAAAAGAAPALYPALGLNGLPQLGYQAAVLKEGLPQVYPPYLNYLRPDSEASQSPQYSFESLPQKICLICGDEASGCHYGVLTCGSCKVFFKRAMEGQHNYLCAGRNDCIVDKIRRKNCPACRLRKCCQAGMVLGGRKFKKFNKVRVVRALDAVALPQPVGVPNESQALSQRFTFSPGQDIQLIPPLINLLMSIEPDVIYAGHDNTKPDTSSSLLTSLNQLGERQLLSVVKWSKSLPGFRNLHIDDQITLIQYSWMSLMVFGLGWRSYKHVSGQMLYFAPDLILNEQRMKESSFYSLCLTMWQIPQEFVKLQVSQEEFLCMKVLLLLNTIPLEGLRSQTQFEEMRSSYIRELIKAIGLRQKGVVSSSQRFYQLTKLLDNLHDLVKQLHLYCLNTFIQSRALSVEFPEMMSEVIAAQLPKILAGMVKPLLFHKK
The experiment in a line: T47D cell alkaline phosphatase assay (antagonist mode). Type of data set: cell-based. The procedure:
A. Effects of Progestins and Antiprogestins on Alkaline Phosphatase Activity in T47D Cells (T47D Alkaline Phosphatase Assay)
Culture medium: DMEM:F12 (1:1) (GIBCO, BRL) supplemented with 5% (v/v) charcoal stripped fetal bovine serum (not heat-inactivated), 100 U/mL penicillin, 100 μg/mL streptomycin, and 2 mM GlutaMax (GIBCO, BRL).
Alkaline phosphatase assay buffer: I. 0.1M Tris-HCl, pH 9.8, containing 0.2% Triton X-100, 0.1M Tris-HCl, pH 9.8, containing 4 mM p-nitrophenyl phosphate (Sigma).
2. Cell Culture and Treatment:
Frozen T47D cells are thawed in a 37° C. water bath and diluted to 280,000 cells/mL in culture medium. To each well in a 96-well plate (Falcon, Becton Dickinson Labware), 180 μl of diluted cell suspension is added. Twenty μl of reference or test compounds diluted in the culture medium is then added to each well. When testing for progestin antagonist activity, reference antiprogestins or test compounds are added in the presence of 1 nM progesterone. The cells are incubated at 37° C. in a 5% CO2 humidified atmosphere for 24 hours. For high throughput screening, one concentration of each compound will be tested at 0.3 μg/mL. Based on an average molecular weight of 300 g/mol for the compounds in the library, the concentration is approximately 1 μM. Subsequently, active compounds will be tested in dose response assays to determine EC50 and IC50.
3. Alkaline Phosphatase Enzyme Assay:
At the end of treatment, the medium is removed from the plate. Fifty μl of assay buffer I is added to each well. The plates are shaken in a titer plate shaker for 15 min. Then 150 μl of assay buffer II is added to each well. Optical density measurements are taken at 5 min intervals for 30 min at a test wavelength of 405 nm.
4. Analysis of Dose-Response Data.
For reference and test compounds, a dose response curve is generated for dose vs. the rate of enzyme reaction (slope). Square root-transformed data are used for analysis of variance and nonlinear dose response curve fitting for both agonist and antagonist modes. Huber weighting is used to down-weight the effects of outliers. EC50 or IC50 values are calculated from the retransformed values. JMP software (SAS Institute, Inc.) is used for both one-way analysis of variance and non-4 linear dose response analysis in both single dose and dose response studies.
Progesterone and trimegestone are reference progestins and RU486 is the reference antiprogestin. All reference compounds are run in full dose response curves and the EC50 and IC50 values are calculated.

Read-outs that look alike come from different tables or passages of the source.

In the case of `Cn1c(C#N)ccc1-c1cc(F)c2c(c1)C(C)(C)C(=O)N2` [5-(7-fluoro-3,3-dimethyl-2-oxo-2,3-dihydro-1H-indol-5-yl)-1-methyl-1H-pyrrole-2-carbonitrile], the “induction of early onset of menses” value in the data set with menses induction was 4 out of 5. For the same compound, the AUC(0-inf) in data set [1] (read-out: exposure (AUC0-∞)) worked out at 578 ng·h/mL. The half-life in data set [1] (read-out: mean half life (t1/2) (converted)) is 8.8 h. Further, the IC50 in data set [2] (PR antagonist, comparative example text, read-out: IC50 in the T47D alkaline phosphatase assay) stood at 3.4 nM; in data set [2] (T47D cells, antagonist mode in the presence of 1 nM progesterone, 24 hours, read-out: IC50 (nM), T47D Cell Alkaline Phosphatase Assay) it was 5.4 nM.

The IC50 is the midpoint of a concentration-inhibition curve.
